In ChEMBL document CHEMBL5370605, “Discovery of Novel Fedratinib-Based HDAC/JAK/BRD4 Triple Inhibitors with Remarkable Antitumor Activity against Triple Negative Breast Cancer” (J Med Chem, 2023):

Columns and labels:
[1] = Half life in ICR (CD-1) mouse at 10 mg/kg, iv measured for 24 hrs by LC-MS/MS analysis; type: ADME, organism-based; settings: in vivo
[2] = Half life in ICR (CD-1) mouse at 50 mg/kg, ip measured for 24 hrs by LC-MS/MS analysis; type: ADME, organism-based; settings: in vivo
[3] = Tmax in ICR (CD-1) mouse at 50 mg/kg, ip measured for 24 hrs by LC-MS/MS analysis; type: ADME, organism-based; settings: in vivo
[4] = Cmax in ICR (CD-1) mouse at 10 mg/kg, iv measured for 24 hrs by LC-MS/MS analysis; type: ADME, organism-based; parameters: time 24 hrs, dose 10 mg/kg, route iv; settings: in vivo
[5] = Cmax in ICR (CD-1) mouse at 50 mg/kg, ip measured for 24 hrs by LC-MS/MS analysis; type: ADME, organism-based; parameters: time 24 hrs, dose 50 mg/kg, route ip; settings: in vivo
[6] = AUC (0 to t) in ICR (CD-1) mouse at 10 mg/kg, iv measured for 24 hrs by LC-MS/MS analysis; type: ADME, organism-based; parameters: dose 10 mg/kg, time 24 hrs, route iv; settings: in vivo
[7] = AUC (0 to t) in ICR (CD-1) mouse at 50 mg/kg, ip measured for 24 hrs by LC-MS/MS analysis; type: ADME, organism-based; parameters: dose 50 mg/kg, time 24 hrs, route ip; settings: in vivo
[8] = MRT (0 to t) in ICR (CD-1) mouse at 10 mg/kg, iv measured for 24 hrs by LC-MS/MS analysis; type: ADME, organism-based; settings: in vivo
[9] = MRT (0 to t) in ICR (CD-1) mouse at 50 mg/kg, ip measured for 24 hrs by LC-MS/MS analysis; type: ADME, organism-based; settings: in vivo
[10] = Volume of distribution at steady state in ICR (CD-1) mouse at 10 mg/kg, iv measured for 24 hrs by LC-MS/MS analysis; type: ADME, organism-based; settings: in vivo
[11] = Bioavailability in ICR (CD-1) mouse at 50 mg/kg, ip measured for 24 hrs by LC-MS/MS analysis; type: ADME, organism-based; settings: ICR (CD-1), in vivo
[12] = target: Histone deacetylase 1 (Homo sapiens, UniProt Q13547); experiment: Inhibition of HDAC1 (unknown origin) using Boc-Lys(Ac)-AMC as substrate incubated for 30 mins by fluorescence based analysis
[13] = target: Tyrosine-protein kinase JAK1 (Homo sapiens, UniProt P23458); experiment: Inhibition of JAK1 (unknown origin) incubated for 40 mins in presence of ATP by Kinase-glo luminescent assay
[14] = target: Bromodomain-containing protein 4 (Homo sapiens, UniProt O60885); experiment: Inhibition of recombinant BRD4 BD1 (unknown origin) using H4KAc as substrate incubated for 30 mins by HTRF analysis
[15] = Selectivity index, ratio of IC50 for human GES-1 cells to IC50 for human MDA-MB-231 cells
[16] = system: MDA-MB-231; experiment: cells; settings: Homo sapiens, MDA-MB-231, 48 h
[17] = in vitro; settings: human, GES1 cells
[18] = Metabolic stability in mouse liver microsomes assessed as half life in presence of NADPH by LC-MS/MS analysis; type: ADME, Microsome
[19] = Metabolic stability in mouse liver microsomes assessed as intrinsic clearance in presence of NADPH by LC-MS/MS analysis; type: ADME, Microsome; settings: read-out: CLH
[20] = Toxicity in athymic BALB/c nude mouse xenografted with human MDA-MB-231 cells assessed as reduction in body weight at 50 mg/kg/day, ip administered for 2 days; type: organism-based; settings: in vivo, 48 h, time 2 day
[21] = Toxicity in athymic BALB/c nude mouse xenografted with human MDA-MB-231 cells assessed as reduction in body weight at 25 mg/kg/day, ip administered for 28 consecutive days; type: organism-based; settings: in vivo, 672 h, time 28 day
[22] = system: MDA-MB-231; experiment: Antitumor activity against human MDA-MB-231 cells xenografted in athymic BALB/c nude mouse assessed as the tumor growth inhibition at 25 mg/kg/day, ip administered for 28 days and measured every 3 days by vernier caliper analysis relative to control; type: functional; settings: MDA-MB-231, 672 h, time 28 day, read-out: TGI
[23] = system: MDA-MB-231; experiment: Antiproliferative activity against human MDA-MB-231 cells assessed as inhibition of cell growth incubated for 48 hrs in presence of SAHA by MTT assay; type: functional, cell-based; settings: MDA-MB-231, 48 h
[24] = Cytotoxicity against human GES1 cells assessed as inhibition of cell growth incubated for 48 hrs in presence of SAHA by MTT assay; type: toxicity, cell-based
[25] = system: GES1; experiment: Cytotoxicity against human GES1 cells at 1 uM incubated for 48 hrs by MTT assay; type: toxicity, cell-based; settings: ges1, 48 h
[26] = In vivo inhibition of HDAC1 in athymic BALB/c nude mouse xenografted with human MDA-MB-231 cells assessed as fold change in acetyl-histone H3 level in tumor at 25 mg/kg, ip administered for 28 consecutive days by Western blot analysis (reference value: 1); type: functional; settings: time 28 day
[27] = In vivo inhibition of JAK1 in athymic BALB/c nude mouse xenografted with human MDA-MB-231 cells assessed as fold change in phosphorylated STAT3 level at Tyr705 residue in tumor at 25 mg/kg, ip administered for 28 consecutive days by Western blot analysis (reference value: 1); type: functional; settings: time 28 day
[28] = In vivo inhibition of JAK1 in athymic BALB/c nude mouse xenografted with human MDA-MB-231 cells assessed as fold change in STAT3 level in tumor at 25 mg/kg, ip administered for 28 consecutive days by Western blot analysis (reference value: 1); type: functional; settings: time 28 day
[29] = In vivo inhibition of BRD4 in athymic BALB/c nude mouse xenografted with human MDA-MB-231 cells assessed as fold change in c-Myc level in tumor at 25 mg/kg, ip administered for 28 consecutive days by Western blot analysis (reference value: 1); type: functional; settings: time 28 day

Sequence of Tyrosine-protein kinase JAK1 (P23458 whole entry): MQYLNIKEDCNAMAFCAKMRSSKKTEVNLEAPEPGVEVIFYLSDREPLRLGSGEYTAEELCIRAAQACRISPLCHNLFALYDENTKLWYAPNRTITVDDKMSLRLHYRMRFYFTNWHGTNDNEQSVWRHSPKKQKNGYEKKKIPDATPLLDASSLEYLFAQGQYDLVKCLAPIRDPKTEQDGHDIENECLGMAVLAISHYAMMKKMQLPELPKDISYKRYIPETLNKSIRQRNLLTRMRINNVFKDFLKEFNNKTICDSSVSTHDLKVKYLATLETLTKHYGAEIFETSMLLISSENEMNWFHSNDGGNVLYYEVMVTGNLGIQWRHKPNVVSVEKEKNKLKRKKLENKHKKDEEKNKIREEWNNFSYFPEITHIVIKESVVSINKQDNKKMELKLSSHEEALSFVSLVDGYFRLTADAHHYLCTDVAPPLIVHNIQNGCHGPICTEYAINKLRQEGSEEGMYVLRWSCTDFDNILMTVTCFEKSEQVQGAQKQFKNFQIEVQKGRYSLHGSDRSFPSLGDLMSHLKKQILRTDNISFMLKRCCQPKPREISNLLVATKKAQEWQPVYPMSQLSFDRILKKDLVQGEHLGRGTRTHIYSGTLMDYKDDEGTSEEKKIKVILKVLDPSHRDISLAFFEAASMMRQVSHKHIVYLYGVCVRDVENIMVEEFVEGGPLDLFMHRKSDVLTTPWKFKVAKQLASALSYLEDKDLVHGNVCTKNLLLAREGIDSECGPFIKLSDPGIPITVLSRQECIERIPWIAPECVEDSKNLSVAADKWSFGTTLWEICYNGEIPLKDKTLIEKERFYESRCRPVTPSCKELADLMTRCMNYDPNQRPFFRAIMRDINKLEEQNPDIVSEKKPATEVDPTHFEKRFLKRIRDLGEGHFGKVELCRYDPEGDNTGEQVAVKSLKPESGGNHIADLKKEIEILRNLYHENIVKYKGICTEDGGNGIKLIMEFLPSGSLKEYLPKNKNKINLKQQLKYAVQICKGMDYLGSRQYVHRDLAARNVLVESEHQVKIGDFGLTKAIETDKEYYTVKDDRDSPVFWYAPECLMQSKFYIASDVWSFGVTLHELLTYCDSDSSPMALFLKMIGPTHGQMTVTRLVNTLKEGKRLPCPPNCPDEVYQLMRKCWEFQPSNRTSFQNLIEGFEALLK
Sequence of Histone deacetylase 1 (Q13547 whole entry): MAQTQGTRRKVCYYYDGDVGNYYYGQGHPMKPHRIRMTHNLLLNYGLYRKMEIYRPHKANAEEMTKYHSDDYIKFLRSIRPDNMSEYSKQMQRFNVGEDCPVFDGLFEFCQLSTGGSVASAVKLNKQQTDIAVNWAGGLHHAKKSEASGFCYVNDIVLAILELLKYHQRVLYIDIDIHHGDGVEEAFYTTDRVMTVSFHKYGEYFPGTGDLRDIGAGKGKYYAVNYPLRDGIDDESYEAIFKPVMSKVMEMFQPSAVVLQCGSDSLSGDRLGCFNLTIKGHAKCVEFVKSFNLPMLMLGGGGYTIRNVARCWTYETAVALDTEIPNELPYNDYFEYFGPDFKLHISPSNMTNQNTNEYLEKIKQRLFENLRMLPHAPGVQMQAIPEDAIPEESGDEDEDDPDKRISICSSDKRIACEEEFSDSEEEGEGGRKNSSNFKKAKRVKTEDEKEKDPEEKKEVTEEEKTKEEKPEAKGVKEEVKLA

Compound | t1/2 [1] [min] | half-life [2] [min] | Tmax [3] [min] | Cmax [4] [ng/mL] | Cmax [5] [ng/mL] | AUCt [6] [ng·h/mL] | AUC(0-t) at 24 h [7] [ng·h/mL] | MRT(t) [8] [min] | MRT last at 24 h [9] [min] | Vdss [10] [L/kg] | bioavailability [11] [%] | IC50 [12] [nM] | IC50 [13] [nM] | IC50 [14] [nM] | IC50 [16] [nM] | IC50 at 48 h [17] [nM] | selectivity ratio [15] | further results
O=C(CCCCCCC(=O)Nc1ccccc1)NO [VORINOSTAT] | 17.4 | 81 | 4.8 | 6640 | 3930 | 783 | 2550 | 7.2 | 40.2 | 1.59 | 65 | – | – | – | – | – | – | –
CCCN(N)C(=O)c1ccc(Nc2nc(Nc3ccc(N4CCN(C)CC4)c(F)c3)ncc2C)cc1 | – | – | – | – | – | – | – | – | – | – | – | > 5000 | 10.4 | 2360 | 4500 | 11500 | 2.5 | –
Cc1cnc(Nc2ccc(/C=C/C(=O)NO)cc2)nc1Nc1ccc(Cl)c(NS(=O)(=O)C(C)(C)C)c1 | – | – | – | – | – | – | – | – | – | – | – | 380 | 14.6 | 1290 | 3400 | 28600 | 7.1 | –

The remaining compounds from weak to strong by IC50 [16], led by results:

t1/2 [1] [min] | half-life [2] [min] | Tmax [3] [min] | Cmax [4] [ng/mL] | Cmax [5] [ng/mL] | AUCt [6] [ng·h/mL] | AUC(0-t) at 24 h [7] [ng·h/mL] | MRT(t) [8] [min] | MRT last at 24 h [9] [min] | Vdss [10] [L/kg] | bioavailability [11] [%] | IC50 [12] [nM] | IC50 [13] [nM] | IC50 [14] [nM] | IC50 [16] [nM] | IC50 at 48 h [17] [nM] | Compound | selectivity ratio [15] | further results
– | – | – | – | – | – | – | – | – | – | – | > 5000 | 5.9 | 1810 | 2200 | 9700 | Cc1cnc(Nc2ccc(N3CCN(C)CC3)c(F)c2)nc1Nc1ccc(C(=O)Nc2ccccc2N)cc1 | 4.4 | –
327 | 173 | 4.8 | 4430 | 9750 | 2825 | 14500 | 113 | 140 | 8.74 | 102 | – | – | – | 1400 | 890 | Cc1cnc(Nc2ccc(OCCN3CCCC3)cc2)nc1Nc1cccc(S(=O)(=O)NC(C)(C)C)c1 [FEDRATINIB] | – | half-life [18]: 5.6 min; CLint scaled [19]: 976 mL/min/kg; Activity [20]: Toxic; Activity [21]: Non-Toxic; inhibition in vivo at 25 mg/kg/day [22]: 32%; IC50 [23]: 460 nM; IC50 at 48 h [24]: 610 nM; Activity [25]: Toxic; fold change (FC) [26]: 0.8; fold change (FC) [27]: 0.5; fold change (FC) [28]: 1.3; fold change (FC) [29]: 1.1
